For 19 compounds, TGI and GI50 results are on record in PubChem BioAssay (NCI).

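Grown in 96-well plates, cells were treated for 48 hours with each compound at five concentrations. Insufficient inhibition: endpoint recorded as highest concentration tested. At the GI50, growth is halved. TGI denotes the concentration required for complete inhibition of growth.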 Bounds are passed on as bounds.

Common to all, as to test: NCI-60 cell line screen, 48 h
Test [1] concerns SNB-19 CNS.
The test system of test [2] is HCT-116 colon.
The subject of test [3] is MDA-MB-435.
Test [4] relates to UACC-257 melanoma.
The subject of test [5] is CCRF-CEM leukemia.
Test [6] concerns SR leukemia.
Test [7] relates to RXF 393 renal.
Test [8] deals with 786-0 renal.
The test system of test [9] is K-562 leukemia.
The subject of test [10] is SW-620 colon.
In test [11] the test system is HL-60(TB) leukemia.
The subject of test [12] is SK-OV-3 ovarian.
The test system of test [13] is MCF7 breast.

As to `NCCSCc1ccccc1Cl`, the TGI in test [1] was above 100 µM; in test [2] it was above 100 µM; in test [3], above 100 µM; in [4], 51.9 µM; in test [5], 78.8 µM; in test [6] it was 55.7 µM. Also, the TGI is above 100 µM in test [7], above 100 µM in test [8], 76.6 µM in [9] and above 100 µM in test [10].

As to `Cc1sc(C)c2c1C(=O)CC2N` (centres undefined), the TGI was above 100 µM in [1]; 28.9 µM in [2]; 53.6 µM in test [3]; 22.9 µM in test [11]; 33.3 µM in [4]; 6.68 µM in [5]. Besides, the TGI in test [6] is above 100 µM; in [7], 34.8 µM; in test [12], above 100 µM; in [8] it was 22.5 µM; in test [9] it was above 56.1 µM; in test [10], 26.3 µM.

As for `NCCCCC(=O)c1cccnc1`, the TGI in test [1], in test [2], in [11], in [4], in [5] and in [6] was above 100 µM each time. The TGI in test [12], in [8], in test [9] and in test [10] was above 100 µM throughout.

As for `Cc1nn2c(C(=O)N/N=C/c3ccc([N+](=O)[O-])cc3)c(C)nc2s1`, the TGI in [1], in test [2], in test [3], in test [11], in [4] and in [5] was above 100 µM each time. The TGI in [7] is above 100 µM; in test [12], 87 µM; in test [8], above 100 µM; in test [13], above 100 µM; in test [9] it was above 100 µM; in test [10] it was above 100 µM.

As to `COC(=O)C1=CN(C2CCCCC2)C2(c3ccccc3)c3ccccc3C(=O)OC(=O)C12` (centres undefined), the TGI in test [1], in test [2], in test [3], in [11], in test [4] and in [5] was above 100 µM each time. Further, the TGI is 97.2 µM in [7]; above 100 µM in [12]; above 100 µM in test [8]; above 100 µM in [13]; above 100 µM in test [9]; above 100 µM in test [10].

On to `O=C1NC(N2CCCCC2)=N/C1=C\c1ccccc1O`, for which the TGI in test [1], in test [2], in [3], in [11], in test [4] and in test [5] was above 100 µM throughout. The TGI in test [7], in [12], in [8], in [13], in [9] and in test [10] was above 100 µM throughout.

`COC(=O)c1ccccc1/C=C1\Cc2c(C)cc(C)cc2C1=O`: the TGI in [1], in test [2], in test [11], in test [4], in test [5] and in test [6] was above 100 µM in each case. Further, the TGI in test [7], in test [8], in test [13], in test [9] and in test [10] was above 100 µM each time.

Take `NC(Cc1ccc(S(=O)(=O)O)cc1)C(=O)NC(Cc1ccc(S(=O)(=O)O)cc1)C(=O)NC(Cc1ccc(S(=O)(=O)O)cc1)C(=O)O` (centres undefined): the TGI in test [2], in test [3], in test [11], in test [4], in test [5] and in test [7] was above 100 µM throughout. Besides, the TGI in [8], in test [13], in test [9] and in test [10] was above 100 µM throughout.

On to `O=S(=O)(c1ccccc1)n1cc(C[P+](c2ccccc2)(c2ccccc2)c2ccccc2)c2ccccc21`, for which the TGI is 6.77 µM in test [1]; 15.2 µM in test [2]; 6.84 µM in test [11]; 12.8 µM in test [5]; 31.6 µM in test [6]; 20.3 µM in test [7]. The TGI stood at 7.86 µM in test [12], 16.3 µM in [8], 14.2 µM in test [9] and 17.1 µM in [10].

For the compound `CC1(S)CC2C(CC1Sc1ccccc1)C2(C)C` (centres undefined), the TGI in test [2], in test [11], in test [4], in test [5], in test [12] and in test [8] was above 100 µM throughout. In [9], this compound came in with a TGI above 100 µM.

Take `C[C@@H]1C2=CC[C@@]3(C)C(CCC3[C@H](C)[C@H]3C[C@@]4(C)O[C@@](c5cccnc5)(O3)OC4(C)C)[C@@H]2C2OC2[C@@]12CCC(=O)O2` (some centres undefined): the TGI was above 100 µM in [1]; above 100 µM in [2]; 41.4 µM in test [11]; above 100 µM in [4]; above 100 µM in test [5]; above 100 µM in [6]. Moreover, the TGI in test [12], in [8], in test [9] and in test [10] was above 100 µM in each case.

Turning to `COC(=O)C1=C(C(=O)OC)SC(=C2S[C@@H]3[C@@H]4C[C@H]([C@@H]3S2)[C@H]2C(=O)OC(=O)[C@@H]42)S1`, the TGI in test [1], in test [2], in test [3], in [11], in [4] and in test [5] was above 100 µM in each case. Moreover, the TGI in test [7], in [8], in [13], in test [9] and in [10] was above 100 µM in each case.

Take `O=[N+]([O-])C(=C1Nc2ccccc2N1)/C(Cl)=C(/Cl)N1CCOCC1`: the TGI in [1], in test [2], in test [3], in test [4], in test [5] and in test [12] was above 100 µM in each case. Moreover, the TGI in test [8], in [13], in test [9] and in [10] was above 100 µM throughout.

For `COc1cc(Nc2nnc3n2S(=O)(=O)c2cc(C)c(Cl)cc2S3)cc(OC)c1`, the TGI in [1] was 77.6 µM; in [2], above 100 µM; in [3], above 100 µM; in [11], 49.7 µM; in test [4], above 100 µM; in test [5], above 100 µM. The TGI was 49.3 µM in test [7]; 31.4 µM in [12]; 20.5 µM in test [8]; above 100 µM in test [13]; above 100 µM in [9].

As for `Cc1cc(=O)[nH]c(NNC(C#N)c2c(O)ccc3ccccc23)n1` (centres undefined), the TGI in test [2] is 17.1 µM; in test [11] it was 8.27 µM; in [4] it was 19.8 µM; in test [5], above 100 µM; in test [6], 26.3 µM; in [7] it was 23.6 µM. In addition, the TGI was 52.6 µM in test [12], 79.8 µM in test [8], above 100 µM in test [9] and 29.9 µM in test [10].

With `CCCCOCc1cc(CN2CCN(C)CC2)c(O)c2ncccc12`, the TGI is above 100 µM in test [1]; 87 µM in test [2]; 13.8 µM in [11]; above 100 µM in [4]; 30.2 µM in [5]; 33.2 µM in test [6]. The TGI is above 100 µM in test [7]; above 100 µM in [12]; 50.7 µM in test [8]; above 100 µM in test [9]; 81.4 µM in [10].

Regarding `N=C(N)c1ccc(-c2ccc(-c3cccs3)s2)s1`, the GI50 in test [1] is 1.56 µM; in test [11], 1.58 µM; in test [4], 1.66 µM; in [6], 0.302 µM; in [7] it was 0.29 µM; in [10] it was 1.63 µM. Also, the TGI in test [1] turned out to be 3.07 µM; in test [11], 3.42 µM; in test [4], 3.11 µM; in test [6], 0.895 µM; in [7], 0.924 µM; in test [10], 3.21 µM.

For `O=[N+]([O-])/C(C(Cl)=C(Cl)Cl)=C(\Nc1ccccc1)n1nnc2ccccc21`, the TGI in [1] was above 100 µM; in [2], above 100 µM; in test [3], 86.5 µM; in [4], above 100 µM; in test [5], 65.9 µM; in test [12] it was above 100 µM. Besides, the TGI in test [8], in test [13], in [9] and in [10] was above 100 µM throughout.

As for `Cc1ccc(C(O)(c2ccc(C)cc2)c2ccccn2)cc1`, the TGI in test [1], in [2], in test [4], in [5], in [12] and in test [8] was above 100 µM throughout. Further, the TGI in [9] and in test [10] was above 100 µM in each case.
